# Entries after “also recorded” stand apart in the source; their conditions may differ. Read-outs that look alike come from different tables or passages of the source.
# Columns and labels:
# [1] = Hygroscopicity - Dynamic Vapor Sorption (DVS); assay type: physicochemical
# Experimental: Hygroscopicity—Dynamic Vapor Sorption (DVS)
# DVS is a gravimetric technique that measures how quickly and how much of a solvent (water) is sorbed by a sample. The relative humidity or vapor concentration surrounding the sample is varied while the change in mass of the sample is measured. […] The mass values at each relative humidity step are used to generate an isotherm. Isotherms are divided in two components: sorption for increasing humidity steps and desorption for decreasing humidity steps. A plot of kinetic data is also used to show the change in mass and humidity as a function of time.
# The samples were analyzed using a TA Q5000 automated dynamic vapor sorption analyzer. The samples were dried at 60° C. over 180 minutes and then cooled to 25° C. with a dry nitrogen purge. The samples were then subjected to 0 to 90% RH, back to 10% RH at 25° C. in 10% RH steps.
# [2] = Thermal and storage stability of salts and forms; assay type: physicochemical; conditions: for stability at ambient conditions: storage
# Source text: On the basis of the DSC data, the acetate salt may be a hydrate.
# The amorphous form may be obtained by crystallization from anhydrous solvents or by thermal desolvation of the hydrate. In certain embodiments, the preferred polymorph of Compound I diphosphate is Compound I diphosphate monohydrate (Form A): […]
# [3] = Static vapor sorption studies; assay type: physicochemical; conditions: for Est. H2O Content (%) / Wt % Change: ambient temperature, 3 weeks, Form A staged
# Source text: Static Vapor Sorption Studies
# Static vapor sorption studies were done in hermetic humidity chambers using saturated salts, or environmental humidity chambers to control the temperature and humidity. Data collected during dynamic vapor sorption studies often are not at thermodynamic equilibrium. To gain a better understanding of the water uptake and the critical humidity level of the API, samples of the starting material (i.e., Form A) were monitored in static humidity chambers to allow the sample to equilibrate with atmospheric moisture.
# In these studies, water vapor sorption was determined gravimetrically by storing samples in open aluminum dishes. Compound I diphosphate salt lot was used for this study. Samples were stored at 7 different humidity levels at ambient temperature (Table 19). Approximately 50 mg of Form A was staged at each humidity condition. The samples were weighed before placing them in the chamber and then re-weighed after 3 weeks. After re-weighing, the samples were immediately analyzed by XRD to determine whether a change in form had occurred.
# The sample stored at 11% RH was an outlier and was therefore omitted from the final isotherm plot. The static isotherm plot is roughly consistent with the DVS isotherm plot (FIG. 12F) with a large moisture uptake at around 40% RH and a maximum uptake between 4 and 5 weight percent.
# [4] = Metabolism in liver microsomes and hepatocytes in vitro; assay type: in vitro ADME
# [5] = Phase I single ascending dose pharmacokinetics of metabolite Compound II in plasma; assay type: in vivo, human; conditions: for AUC(0-t): po; for Tmax: read-out: Tmax, Median
# Source text: The study comprised a single ascending dose (SAD), sequential cohort study, incorporating a food effect (FE) evaluation. Up to 40 subjects were to be studied in 5 cohorts (Cohorts A1 to A5), each cohort consisting of 8 subjects.
# The actual blood sampling dates and times relative to dosing time were listed by subject and nominal sampling time, with time deviation calculated, for all subjects with available plasma concentration data.
# For PK concentration data, the number of non-missing values, number of below limit of quantification (BLQ) values, arithmetic mean, standard deviation, median, minimum, maximum, coefficient of variation (CV %), geometric mean and geometric coefficient of variation (geo CV %) values was presented.
# For PK parameter data, the number of non-missing values, arithmetic mean, standard deviation, median, minimum, and maximum values were presented.
# [6] = cited from earlier work
# [7] = Solubility in water of salts; assay type: physicochemical
# [8] = human, metabolite after 200 mg DS (Fasted), single oral dose, plasma
# [9] = human, metabolite after 400 mg DS (Fasted), single oral dose, plasma
# [10] = metabolite after 60 mg DS (Fasted), single oral dose, plasma
# [11] = metabolite after 120 mg DS (Fasted), single oral dose, plasma
# [12] = metabolite after 200 mg DS (Fasted), single oral dose, plasma
# [13] = metabolite after 400 mg DS (Fasted), single oral dose, plasma
smiles,measurement,setting,value
CN(C)C[C@H]1CN(CCc2ccsc2)CC[C@]1(O)c1cccc(C(N)=O)c1 [Form A],maximum water/moisture uptake,[1]; at 90% RH,4.15 wt %
same,heating withstood by the hydrate,[2],~ 70 °C
same,stability at ambient conditions,[2],stable at ambient conditions
same,change of solid state form with humidity,[3]; XRD after storage at different humidity levels,did not change at any humidity level; also recorded: retains its structure in both low and high humidity environments
same,relative humidity of large moisture uptake,[3]; static isotherm,around 40 % RH
"CNC[C@H]1CN(CCc2ccsc2)CC[C@]1(O)c1cccc(C(N)=O)c1 [Compound II, 3-(3S, 4R)-3-((methylamino)methyl)-4-hydroxy-1-(2-(thiophen-3-yl)ethyl)piperidin-4-yl-benzamide]",metabolite formation in vitro,[4],predominant metabolite of Compound I
same,"MRAUC0-t, metabolite ratio (MEB-373/MEB1170 AUC0-t values), Mean","[5]; 200 mg DS (Fasted), single oral dose, plasma",0.0231
same,"MRAUC0-t, metabolite ratio (MEB-373/MEB1170 AUC0-t values), Mean","[5]; 400 mg DS (Fasted), single oral dose, plasma",0.0276
same,half-life,"[5]; human, plasma, oral, 400 mg dose group (n=5), read-out: mean plasma t1/2 (converted)",0.902 h
same,half-life,"[5]; human, plasma, oral, one individual at 200 mg, read-out: t1/2 (converted)",2 h
same,AUC(0-t),"[5]; human, plasma, 200 mg, metabolite after 200 mg DS (Fasted), single oral dose, plasma, read-out: AUC0-t (zero to the time of the last quantifiable concentration), Mean",8.77 ng·h/mL
same,AUC(0-t),"[5]; human, plasma, 400 mg, metabolite after 400 mg DS (Fasted), single oral dose, plasma, read-out: AUC0-last (zero to 24 hours postdose), Mean",27.3 ng·h/mL
same,AUC(0-t),"[5]; human, plasma, 400 mg, metabolite after 400 mg DS (Fasted), single oral dose, plasma, read-out: AUC0-t (zero to the time of the last quantifiable concentration), Mean",21.1 ng·h/mL
same,Cmax,[5]; [8],7.91 ng/mL
same,Tmax,[5]; [8],2.26 h
same,Cmax,[5]; [9],12.2 ng/mL
same,AUC(0-inf),"[5]; human, metabolite after 400 mg DS (Fasted), single oral dose, plasma, read-out: AUC0-inf, Mean",28.7 ng·h/mL
same,Tmax,[5]; [9],2 h
same,half-life,"[5]; human, metabolite after 400 mg DS (Fasted), single oral dose, plasma, read-out: t1/2 (terminal plasma half-life), Mean (converted)",0.902 h
same,systemic exposures relative to Compound I,[5]; in vivo,very low relative to Compound I
same,"Tlast, Max",[5]; [10],2.50 h
same,"Tlast, Min",[5]; [10],2.50 h
same,"Tlast, Max",[5]; [11],4.00 h
same,"Tlast, Min",[5]; [11],2.50 h
same,"Tmax, Max",[5]; [11],2.50 h
same,"Tmax, Min",[5]; [11],2.50 h
same,"Tlast (time of last measurable concentration), Median",[5]; [12],3.25 h
same,"Tlast, Max",[5]; [12],4.00 h
same,"Tlast, Min",[5]; [12],2.50 h
same,"Tmax, Max",[5]; [12],2.50 h
same,"Tmax, Min",[5]; [12],1.00 h
same,"Tlast (time of last measurable concentration), Median",[5]; [13],4.00 h
same,"Tlast, Max",[5]; [13],4.00 h
same,"Tlast, Min",[5]; [13],2.50 h
same,"Tmax, Max",[5]; [13],2.50 h
same,"Tmax, Min",[5]; [13],1.50 h
same,plasma concentrations,"[5]; most subjects at doses of 20, 60, and 120 (fed) mg",below the limit of assay quantitation
CCS(=O)(=O)O [Ethanesulfonic acid],pKa,[6]; first value listed,−2.1
CCCCCCCCCCCCCCCCCC(=O)O [Stearic acid],pKa,[6]; first value listed,4.9
"O=S(=O)(O)CCS(=O)(=O)O [1,2-Ethanedisulfonic acid]",pKa,[6]; first value listed,−2.1
same,pKa,[6]; second value listed,−1.5
O=C(O)CNC(=O)c1ccccc1 [Hippuric acid],pKa,[6]; first value listed,3.6
"O=S(=O)(O)c1cccc2c(S(=O)(=O)O)cccc12 [1,5-Naphthalenedisulfonic acid]",pKa,[6]; first value listed,−3.4
same,pKa,[6]; second value listed,−2.6
CC1(C)C2CCC1(CS(=O)(=O)O)C(=O)C2 (centres unmarked) [Camphorsulfonic acid],pKa,[6]; first value listed,2.2
"CN(C)C[C@H]1CN(CCc2ccsc2)CC[C@]1(O)c1cccc(C(N)=O)c1 [Compound I diphosphate, 3-(3S,4R)-3-((dimethylamino)methyl)-4-hydroxy-1-(2-(thiophen-3-yl)ethyl)piperidin-4-yl-benzamide bisphosphate]",hygroscopicity,[1]; in words,moderately hygroscopic
same,aqueous solubility,[7],high aqueous solubility
same,solubility in unbuffered water,[7]; unbuffered water,high solubility
same,"stability (thermal, chemical)","[2]; in words, listed as diphosphate salt",more stable; also recorded: improved stability (thermally and chemically) over the other salts
same,stability at ambient conditions,[2]; listed as diphosphate salt,stable to storage under ambient conditions
same,Est. H2O Content (%),[3]; 11% relative humidity,3.1%
same,Wt % Change,[3]; 11% relative humidity,−0.2 Wt %
same,Est. H2O Content (%),[3]; 22% relative humidity,0.8%
same,Wt % Change,[3]; 22% relative humidity,−2.5 Wt %
same,Est. H2O Content (%),[3]; 33% relative humidity,1.8%
same,Wt % Change,[3]; 33% relative humidity,−1.5 Wt %
same,Est. H2O Content (%),[3]; 43% relative humidity,3.9%
same,Wt % Change,[3]; 43% relative humidity,+0.6 Wt %
same,Est. H2O Content (%),[3]; 75% relative humidity,4.1%
same,Wt % Change,[3]; 75% relative humidity,+0.8 Wt %
same,Est. H2O Content (%),[3]; 84% relative humidity,4.4%
same,Wt % Change,[3]; 84% relative humidity,+1.1 Wt %
same,Est. H2O Content (%),[3]; 97% relative humidity,4.8%
same,Wt % Change,[3]; 97% relative humidity,+1.5 Wt %
O=S(=O)(O)c1ccc2ccccc2c1 [Naphthalene-2-sulfonic acid],pKa,[6]; first value listed,0.2

# Source: patent publication US20260224549A1, “COMPOUNDS, COMPOSITIONS, AND METHODS FOR TREATING, AMELIORATING, AND/OR PREVENTING PAIN” (priority 2023, published 2026)
